# Key:
# rats and mice = test system: rats and mice; parameters: method as in PMID 21438738, PMID 12075117, PMID 18445619; conditions: cited from earlier work
# oestrogen receptor α = test system: oestrogen receptor α; parameters: method as in PMID 22927406; conditions: in the presence of E2; cited from earlier work
# [1] = test system: intact female BALB/c mice; parameters: method as in PMID 9359486; conditions: 28 days of oral administration, intact female BALB/c mice ∼50 days old; cited from earlier work
# female CD-1 mice [2] = test: Exposure experiment through drinking water; type: in vivo; conditions: 10-day exposure via drinking water
# Procedure: Mice with a maximal difference in body weight of 1 g were selected for the experiments and randomly assigned to either the treatment or control groups. […] The animals were fed ad libitum an oestrogen-free diet from Trophic Animal Feed High-tech Co., Ltd. (Nantong, China), and drinking water was provided ad libitum in glass bottles. Before the experiments, the mice were randomly assigned to five groups (n=8). Ultra-pure water was used as a control. FULV was dissolved in ultra-pure water to a concentration of 100 ng l^−1 and used as a positive control. […] Two plastic drinking bottles labelled ‘BPA-free', of different brands, were purchased and denoted Bottle A and Bottle B. The plastic bottles were filled with boiling ultra-pure water from a stainless steel electric water heater and allowed to cool down to room temperature before the animal experiment. The BHPF levels in the cooled boiled waters from Bottle A, Bottle B and the stainless steel electric water heater were determined by GC–MS. No BHPF was detected in the cooled boiled water from the stainless steel electric water heater. The cooled boiled waters from Bottle A and Bottle B were transferred to glass bottles during the experiment. The exposure experiment was performed for 10 days beginning on PND 24. After the period of exposure, the mice were weighed and killed in turns for each group, whereby in each turn only one mouse in a group was killed. Blood was collected by cardiac puncture soon after each animal was killed, and the uteri were removed, blotted and weighed by one experimenter to reduce the risk of bias in the data collection and immediately frozen in liquid nitrogen for gene expression analysis. The relative uterine weight was calculated to evaluate the anti-uterotrophic activity. […] The serum BHPF levels were analysed by GC–MS using the same method as that for human serum. The gene expressions of sprr2a and sprr2b in the uteri were determined by Q-RT-PCR.
# female CD-1 mice [3] = test: Improved anti-uterotrophic assay, daily oral gavage for 10 days beginning on PND 24; type: in vivo; conditions: daily oral gavage for 10 days
# Procedure: The animals were fed ad libitum with a basic diet from the Laboratory Animal Center of the Academy of Military Medical Sciences (Beijing, China), and drinking water was provided ad libitum. […] The volume of vehicle or chemical solutions administered was adjusted daily based on body weight measured during the dosing period according to the volume-body weight ratio of 5 ml kg^−1 bw.
# rats = test system: rats; parameters: method as in PMID 8773425; conditions: oral, before implantation on day 2 of pregnancy; cited from earlier work
# CD-1 mice = test: Subchronic and reproductive toxicity tests; conditions: mouse, in vivo
# Procedure: Immature CD-1 mice (20 days old) were obtained from Experimental Animal Tech Co. of Weitonglihua (Beijing, China) and acclimatized in an experimental environment with a temperature of 22 °C±2 °C, relative humidity between 40 and 60%, and artificial lighting in a 12 h/12 h light-dark cycle. The animals were fed ad libitum with a basic diet from the Laboratory Animal Center of the Academy of Military Medical Sciences (Beijing, China), and drinking water was provided ad libitum. […] The animals were housed five to a cage until the pairing date. The treatment via oral gavage of each mouse was performed once every 3 days beginning on PND 24. The chemicals were dissolved in peanut oil to the appropriate concentrations. The volume of vehicle or chemical solutions administered was adjusted daily based on body weight measured during the dosing period according to the volume-body weight ratio of 5 ml kg^−1 bw. On PND 60, 10 females of each group were weighed and killed by cervical dislocation. The uteri, ovaries, livers, kidneys and spleens were weighed and collected for histological analysis. At the age of PND 77, males and females were paired. Each morning, the females were examined for the presence of vaginal plugs. Gestational day 1 was defined as the day on which a vaginal plug was found. In cases where pairing was unsuccessful, females were re-mated with proven males of the same group, except that females in the 1.2 mg kg^−1 TAM group were re-mated with proven males of the control group. After a 7-day mating period, the males were weighed and killed, and organs were weighed and collected for further analysis. Cauda epididymal sperm was collected from each mouse and observed under a trinocular microscope (Olympus BX53) in physiological saline. A microscopic video was recorded and analysed for sperm quality evaluation. The treatment via oral gavage was continued for the females until day 19 of pregnancy. On post-partum days 0 and 4, the weights of the dams and pups were recorded and the pups were checked for abnormalities. On post-partum day 4, the dams were weighed and killed, and their organs were weighed and collected for further analysis. The ovaries and uteri were examined for the numbers of corpora lutea and implantation sites, respectively. Finally, the non-pregnant and nulliparous females were killed for histopathological analysis. For histological examination, organs and tissues were fixed in formalin fixation, embedded in paraffin, and sectioned serially at 5 μm. Slides were stained with hematoxylin and eosin (H&E), and observed under a light microscope (Olympus BX53).
smiles,measurement,setting,value
"CC(C)(c1ccc(O)cc1)c1ccc(O)cc1 [BPA, bisphenol A]",reproductive/developmental NOAEL,rats and mice,50 mg kg^−1 bw day^−1
same,systemic no-observed-adverse-effect level (NOAEL),rats and mice,5 mg kg^−1 bw day^−1
"Cc1cc(C(C)(C)c2ccc(O)c(C)c2)ccc1O [BPC, bisphenol C]",antagonistic activity,oestrogen receptor α,almost full antagonistic activity
CC1=C(c2ccc(OC(=O)C(C)(C)C)cc2)[C@H](c2ccc(OCCN3CCCCC3)cc2)Oc2cc(OC(=O)C(C)(C)C)ccc21 [EM-800],effect on uterus,[1],reduce uterine weights and cause atrophy of the endometrium
"C[C@]12CC[C@@H]3c4ccc(O)cc4C[C@@H](CCCCCCCCC[S+]([O-])CCCC(F)(F)C(F)(F)F)[C@H]3[C@@H]1CC[C@@H]2O (stereo partly shown) [FULV, fulvestrant]","relative uterine weight, % that of the control","female CD-1 mice [2]; 100 ng l^−1 BHPF or FULV, Bottle A 124.35, Bottle B 23.81 ng l^−1 BHPF, P>0.05",77.89%±37.50
same,expression of sprr2a in the uteri (Q-RT-PCR),female CD-1 mice [2]; no statistically significant difference (P>0.05),decreased
same,expression of sprr2b in the uteri (Q-RT-PCR),female CD-1 mice [2]; vs control,significantly lower
same,relative uterine weights,female CD-1 mice [3],decreased in a dose-dependent manner
CN(C)CCOc1ccc([C@H]2C[C@]3(C)[C@@H](O)CC[C@H]3[C@@H]3CCc4cc(O)ccc4[C@H]32)cc1 [RU39411],"reproductive effects, high doses",rats,prevented pregnancy in all animals
same,"reproductive effects, low doses",rats,reduced the litter sizes and weights and induced embryonic absorption in some animals
"CC/C(=C(\c1ccccc1)c1ccc(OCCN(C)C)cc1)c1ccccc1 [TAM, tamoxifen, reference compound]","reproductive effects, high doses",rats,prevented pregnancy in all animals
same,"reproductive effects, low doses",rats,reduced the litter sizes and weights and induced embryonic absorption in some animals
same,analysis of ovary sections,CD-1 mice,retarded follicular development and reduced the numbers of corpora lutea
same,histopathological examination of ovaries,CD-1 mice,haemorrhagic ovary cysts occurred
same,histopathological examination of uteri,CD-1 mice,serious atrophic endometria
same,sperm quality,CD-1 mice,No obvious adverse effects
